US8952024B2, “Herbicidal pyrimidone derivatives” (E I du Pont de Nemours and Company, priority 2009, dated 2015)

Key:
Test in all cases: Test D pre-/postemergence plant response
Assay type in all cases: in vivo
Settings in all cases: Postemergence
[1] = test system: Italian ryegrass (Lolium multiflorum)
From the text: (§1) Seeds of plant species selected from bermudagrass (Cynodon dactylon), Surinam grass (Brachiaria decumbens), large crabgrass (Digitaria sanguinalis), green foxtail (Setaria viridis), goosegrass (Eleusine indica), johnsongrass (Sorghum halepense), kochia (Kochia scoparia), morningglory (pitted morningglory, Ipomoea lacunosa), nutsedge (purple nutsedge, Cyperus rotundus), ragweed (common ragweed, Ambrosia elatior), black mustard (Brassica nigra), guineagrass (Panicum maximum), dallisgrass (Paspalum dilatatum), barnyardgrass (Echinochloa crus-galli), sandbur (southern sandbur, Cenchrus echinatus), sowthistle (common sowthistle, Sonchus oleraceous), prickly sida (Sida spinosa), Italian ryegrass (Lolium multiflorum), purslane (common purslane, Portulaca oleracea), signalgrass (broadleaf signalgrass, Brachiaria platyphylla), groundsel (common groundsel, Senecio vulgaris), chickweed (common chickweed, Stellaria media), dayflower (Virginia (VA) dayflower, Commelina virginica), bluegrass (annual bluegrass, Poa annua), naked crabgrass (Digitaria nuda), itchgrass (Rottboellia cochinchinensis), quackgrass (Elytrigia repens), field bindweed (Convolvulus arvensis), spanishneedles (Bidens bipinnata), mallow (common mallow, Malva sylvestris) and Russian thistle (Salsola kali), were planted into a blend of loam soil and sand and treated preemergence with test chemicals formulated in a non-phytotoxic solvent mixture which included a surfactant. At the same time, plants from these weed species were treated with postemergence applications of the test chemicals formulated in the same manner. Plants ranged in height from 2 to 18 cm (1- to 4-leaf stage) for postemergence treatments.
(§2) Treated plants and controls were maintained in a greenhouse for 14 to 21 days, after which time all species were visually evaluated and compared to controls. Plant response ratings, summarized in Table D, are based on a scale of 0 to 100 where 0 is no effect and 100 is complete control. A dash (-) response means no test result.

[2] = test system: Russian thistle (Salsola kali)
From the text: as §1, §2

[3] = test system: Surinam grass (Brachiaria decumbens)
From the text: as §1, §2

[4] = test system: bermudagrass (Cynodon dactylon)
From the text: as §1, §2

[5] = test system: black mustard (Brassica nigra)
From the text: as §1, §2

[6] = test system: chickweed (common chickweed, Stellaria media)
From the text: as §1, §2

[7] = test system: field bindweed (Convolvulus arvensis)
From the text: as §1, §2

[8] = test system: groundsel (common groundsel, Senecio vulgaris)
From the text: as §1, §2

[9] = test system: guineagrass (Panicum maximum)
From the text: as §1, §2

[10] = test system: large crabgrass (Digitaria sanguinalis)
From the text: as §1, §2

[11] = test system: morningglory (pitted morningglory, Ipomoea lacunosa)
From the text: as §1, §2

[12] = test system: nutsedge (purple nutsedge, Cyperus rotundus)
From the text: as §1, §2

[13] = test system: purslane (common purslane, Portulaca oleracea)
From the text: as §1, §2

[14] = test system: quackgrass (Elytrigia repens)
From the text: as §1, §2

[15] = test system: signalgrass (broadleaf signalgrass, Brachiaria platyphylla)
From the text: as §1, §2

[16] = test system: sowthistle (common sowthistle, Sonchus oleraceous)
From the text: as §1, §2

[17] = 125 g ai/ha, scale 0 to 100 (0 no effect, 100 complete control)
[18] = 250 g ai/ha, scale 0 to 100 (0 no effect, 100 complete control)
[19] = 62 g ai/ha, scale 0 to 100 (0 no effect, 100 complete control)

Q: Which results are given for `CCCCn1c(-c2ccccc2)ncc(C(=O)C2=C(O)C3CCC(C3)C2=O)c1=O` (stereo not drawn) [Compound 240]?
A: Plant response rating, Ryegrass, Italian ([1]; 31 g ai/ha, scale 0 to 100): 0; Plant response rating, Ryegrass, Italian [1, 17]: 35; Plant response rating, Ryegrass, Italian [1, 18]: 35; Plant response rating, Ryegrass, Italian [1, 19]: 35; Plant response rating, Russian Thistle ([2]; 31 g ai/ha, scale 0 to 100): 35; Plant response rating, Russian Thistle [2, 18]: 35; Plant response rating, Russian Thistle [2, 19]: 35; Plant response rating, Surinam Grass ([3]; 31 g ai/ha, scale 0 to 100): 70; Plant response rating, Surinam Grass [3, 17]: 95; Plant response rating, Surinam Grass [3, 18]: 95; Plant response rating, Surinam Grass [3, 19]: 70; Plant response rating, Bermudagrass ([4]; 31 g ai/ha, scale 0 to 100): 85; Plant response rating, Bermudagrass [4, 17]: 95; Plant response rating, Bermudagrass [4, 18]: 95; Plant response rating, Bermudagrass [4, 19]: 95; Plant response rating, Black Mustard ([5]; 31 g ai/ha, scale 0 to 100): 70; Plant response rating, Black Mustard [5, 17]: 98; Plant response rating, Black Mustard [5, 18]: 98; Plant response rating, Black Mustard [5, 19]: 80; Plant response rating, Chickweed ([6]; 31 g ai/ha, scale 0 to 100): 25; Plant response rating, Chickweed [6, 17]: 60; Plant response rating, Chickweed [6, 18]: 70; Plant response rating, Chickweed [6, 19]: 50; Plant response rating, Field Bindweed ([7]; 31 g ai/ha, scale 0 to 100): 60; Plant response rating, Field Bindweed [7, 17]: 70; Plant response rating, Field Bindweed [7, 18]: 70; Plant response rating, Field Bindweed [7, 19]: 70; Plant response rating, Groundsel ([8]; 31 g ai/ha, scale 0 to 100): 100; Plant response rating, Groundsel [8, 17]: 100; Plant response rating, Groundsel [8, 18]: 100; Plant response rating, Groundsel [8, 19]: 100; Plant response rating, Guineagrass ([9]; 31 g ai/ha, scale 0 to 100): 40; Plant response rating, Guineagrass [9, 17]: 80; Plant response rating, Guineagrass [9, 18]: 80; Plant response rating, Guineagrass [9, 19]: 65; Plant response rating, Crabgrass, Large ([10]; 31 g ai/ha, scale 0 to 100): 40; Plant response rating, Crabgrass, Large [10, 17]: 65; Plant response rating, Crabgrass, Large [10, 18]: 70; Plant response rating, Crabgrass, Large [10, 19]: 65; Plant response rating, Morningglory ([11]; 31 g ai/ha, scale 0 to 100): 65; Plant response rating, Morningglory [11, 17]: 90; Plant response rating, Morningglory [11, 18]: 95; Plant response rating, Morningglory [11, 19]: 80; Plant response rating, Nutsedge, Purple ([12]; 31 g ai/ha, scale 0 to 100): 0; Plant response rating, Nutsedge, Purple [12, 17]: 5; Plant response rating, Nutsedge, Purple [12, 18]: 20; Plant response rating, Nutsedge, Purple [12, 19]: 5; Plant response rating, Purslane ([13]; 31 g ai/ha, scale 0 to 100): 0; Plant response rating, Purslane [13, 18]: 50; Plant response rating, Purslane [13, 19]: 35; Plant response rating, Quackgrass ([14]; 31 g ai/ha, scale 0 to 100): 25; Plant response rating, Quackgrass [14, 17]: 35; Plant response rating, Quackgrass [14, 18]: 50; Plant response rating, Quackgrass [14, 19]: 30; Plant response rating, Signalgrass ([15]; 31 g ai/ha, scale 0 to 100): 20; Plant response rating, Signalgrass [15, 17]: 75; Plant response rating, Signalgrass [15, 18]: 85; Plant response rating, Signalgrass [15, 19]: 75; Plant response rating, Sowthistle ([16]; 31 g ai/ha, scale 0 to 100): 98; Plant response rating, Sowthistle [16, 17]: 98; Plant response rating, Sowthistle [16, 18]: 98; Plant response rating, Sowthistle [16, 19]: 98

Q: How did the “Plant response rating, Ryegrass, Italian” value ([1]; 31 g ai/ha, scale 0 to 100) turn out when `COCCCn1c(-c2cc(F)cc(F)c2)ncc(C(=O)C2=C(O)C3CCC(C3)C2=O)c1=O` (stereo not drawn) [Compound 244] was run?
A: 5

Q: What about the “Plant response rating, Ryegrass, Italian” value [1, 17] of the same compound?
A: 35

Q: And the “Plant response rating, Ryegrass, Italian” value [1, 18]?
A: 60

Q: And the “Plant response rating, Ryegrass, Italian” value [1, 19]?
A: 15

Q: And the “Plant response rating, Russian Thistle” value ([2]; 31 g ai/ha, scale 0 to 100)?
A: 20

Q: And the “Plant response rating, Russian Thistle” value [2, 17]?
A: 60

Q: What about the “Plant response rating, Russian Thistle” value [2, 18] of the same compound?
A: 65

Q: And the “Plant response rating, Russian Thistle” value [2, 19]?
A: 40

Q: And the “Plant response rating, Surinam Grass” value ([3]; 31 g ai/ha, scale 0 to 100)?
A: 75

Q: And the “Plant response rating, Surinam Grass” value [3, 17]?
A: 80

Q: What about the “Plant response rating, Surinam Grass” value [3, 18] of the same compound?
A: 80

Q: What about the “Plant response rating, Surinam Grass” value [3, 19] of the same compound?
A: 75

Q: And the “Plant response rating, Bermudagrass” value ([4]; 31 g ai/ha, scale 0 to 100)?
A: 80

Q: What about the “Plant response rating, Bermudagrass” value [4, 17] of the same compound?
A: 95

Q: And the “Plant response rating, Bermudagrass” value [4, 18]?
A: 95

Q: And the “Plant response rating, Bermudagrass” value [4, 19]?
A: 80

Q: And the “Plant response rating, Black Mustard” value ([5]; 31 g ai/ha, scale 0 to 100)?
A: 50

Q: What about the “Plant response rating, Black Mustard” value [5, 17] of the same compound?
A: 95

Q: And the “Plant response rating, Black Mustard” value [5, 18]?
A: 98

Q: What about the “Plant response rating, Black Mustard” value [5, 19] of the same compound?
A: 75

Q: What about the “Plant response rating, Chickweed” value ([6]; 31 g ai/ha, scale 0 to 100) of the same compound?
A: 15

Q: And the “Plant response rating, Chickweed” value [6, 17]?
A: 40

Q: What about the “Plant response rating, Chickweed” value [6, 18] of the same compound?
A: 60

Q: What about the “Plant response rating, Chickweed” value [6, 19] of the same compound?
A: 20

Q: What about the “Plant response rating, Field Bindweed” value ([7]; 31 g ai/ha, scale 0 to 100) of the same compound?
A: 20

Q: What about the “Plant response rating, Field Bindweed” value [7, 17] of the same compound?
A: 65

Q: And the “Plant response rating, Field Bindweed” value [7, 18]?
A: 70

Q: What about the “Plant response rating, Field Bindweed” value [7, 19] of the same compound?
A: 35

Q: What about the “Plant response rating, Groundsel” value ([8]; 31 g ai/ha, scale 0 to 100) of the same compound?
A: 100

Q: And the “Plant response rating, Groundsel” value [8, 17]?
A: 100

Q: And the “Plant response rating, Groundsel” value [8, 18]?
A: 100

Q: What about the “Plant response rating, Groundsel” value [8, 19] of the same compound?
A: 100

Q: And the “Plant response rating, Guineagrass” value ([9]; 31 g ai/ha, scale 0 to 100)?
A: 70

Q: What about the “Plant response rating, Guineagrass” value [9, 17] of the same compound?
A: 75

Q: What about the “Plant response rating, Guineagrass” value [9, 18] of the same compound?
A: 75

Q: And the “Plant response rating, Guineagrass” value [9, 19]?
A: 75

Q: And the “Plant response rating, Crabgrass, Large” value ([10]; 31 g ai/ha, scale 0 to 100)?
A: 70

Q: And the “Plant response rating, Crabgrass, Large” value [10, 17]?
A: 75

Q: What about the “Plant response rating, Crabgrass, Large” value [10, 18] of the same compound?
A: 75

Q: And the “Plant response rating, Crabgrass, Large” value [10, 19]?
A: 75

Q: What about the “Plant response rating, Morningglory” value ([11]; 31 g ai/ha, scale 0 to 100) of the same compound?
A: 65

Q: What about the “Plant response rating, Morningglory” value [11, 17] of the same compound?
A: 75

Q: And the “Plant response rating, Morningglory” value [11, 18]?
A: 75

Q: What about the “Plant response rating, Morningglory” value [11, 19] of the same compound?
A: 70

Q: What about the “Plant response rating, Nutsedge, Purple” value ([12]; 31 g ai/ha, scale 0 to 100) of the same compound?
A: 0

Q: And the “Plant response rating, Nutsedge, Purple” value [12, 17]?
A: 10

Q: And the “Plant response rating, Nutsedge, Purple” value [12, 18]?
A: 35

Q: And the “Plant response rating, Nutsedge, Purple” value [12, 19]?
A: 0

Q: And the “Plant response rating, Purslane” value ([13]; 31 g ai/ha, scale 0 to 100)?
A: 25

Q: And the “Plant response rating, Purslane” value [13, 17]?
A: 50

Q: And the “Plant response rating, Purslane” value [13, 18]?
A: 50

Q: And the “Plant response rating, Purslane” value [13, 19]?
A: 50

Q: What about the “Plant response rating, Quackgrass” value ([14]; 31 g ai/ha, scale 0 to 100) of the same compound?
A: 20

Q: And the “Plant response rating, Quackgrass” value [14, 17]?
A: 50

Q: And the “Plant response rating, Quackgrass” value [14, 18]?
A: 65

Q: And the “Plant response rating, Quackgrass” value [14, 19]?
A: 40

Q: What about the “Plant response rating, Signalgrass” value ([15]; 31 g ai/ha, scale 0 to 100) of the same compound?
A: 20

Q: What about the “Plant response rating, Signalgrass” value [15, 17] of the same compound?
A: 25

Q: And the “Plant response rating, Signalgrass” value [15, 18]?
A: 35

Q: And the “Plant response rating, Signalgrass” value [15, 19]?
A: 20

Q: What about the “Plant response rating, Sowthistle” value ([16]; 31 g ai/ha, scale 0 to 100) of the same compound?
A: 75

Q: What about the “Plant response rating, Sowthistle” value [16, 17] of the same compound?
A: 100

Q: And the “Plant response rating, Sowthistle” value [16, 18]?
A: 100

Q: What about the “Plant response rating, Sowthistle” value [16, 19] of the same compound?
A: 95
